Consider two compounds from ChEMBL document CHEMBL4507275, “Data for DCP probe BI-2545” (2021).

For assay [1], the target named is Beta-2 adrenergic receptor (Homo sapiens) (UniProt P07550). The conditions noted are these: Compound concentration 10.0 uM.
In assay [2] the target is 5-hydroxytryptamine receptor 2A (Homo sapiens, UniProt P28223). Briefly: GPCRScan assay: inhibition of 5-HT2A. More on the design: radioligand conc. used [nm] 1.2 – 2.4, parental cells HEKT.
The target in assay [3] is Sigma non-opioid intracellular receptor 1 (Homo sapiens, UniProt Q99720). As to the kind of experiment: GPCRScan assay: inhibition of Sigma 1. More on the design: radioligand conc. used [nm] 4.0 – 5.0, parental cells HEKT.
Sigma non-opioid intracellular receptor 1, sequence (Q99720 whole entry): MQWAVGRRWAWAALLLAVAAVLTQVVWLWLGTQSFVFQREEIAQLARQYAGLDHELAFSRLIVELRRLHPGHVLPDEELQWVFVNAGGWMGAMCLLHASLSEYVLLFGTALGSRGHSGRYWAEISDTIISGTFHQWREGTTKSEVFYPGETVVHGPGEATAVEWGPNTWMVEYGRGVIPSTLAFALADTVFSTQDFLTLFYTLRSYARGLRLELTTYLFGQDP
The target in assay [4] is Prostaglandin G/H synthase 1 (Homo sapiens) (UniProt P23219). Briefly: COX-1 Cerep selectivity data (BI). The following applies: Compound concentration 10.0 uM.
Prostaglandin G/H synthase 1 (Homo sapiens), sequence (P23219 whole entry): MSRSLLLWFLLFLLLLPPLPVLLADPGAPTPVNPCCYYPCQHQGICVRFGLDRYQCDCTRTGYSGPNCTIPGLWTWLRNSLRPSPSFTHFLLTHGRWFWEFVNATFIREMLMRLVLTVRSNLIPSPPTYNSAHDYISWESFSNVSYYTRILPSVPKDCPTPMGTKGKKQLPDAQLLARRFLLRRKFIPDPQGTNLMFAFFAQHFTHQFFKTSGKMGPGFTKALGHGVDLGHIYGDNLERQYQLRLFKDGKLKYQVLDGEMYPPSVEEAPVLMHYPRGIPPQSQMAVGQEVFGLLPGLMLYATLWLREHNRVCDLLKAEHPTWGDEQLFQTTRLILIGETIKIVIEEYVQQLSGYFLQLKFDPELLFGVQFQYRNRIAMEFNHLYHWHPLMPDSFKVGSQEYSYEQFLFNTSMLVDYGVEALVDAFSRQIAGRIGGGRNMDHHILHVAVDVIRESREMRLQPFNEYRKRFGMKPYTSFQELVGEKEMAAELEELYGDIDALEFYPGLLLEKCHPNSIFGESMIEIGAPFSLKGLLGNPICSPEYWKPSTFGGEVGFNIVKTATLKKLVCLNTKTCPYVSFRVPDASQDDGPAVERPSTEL
For assay [5], the target named is 5-hydroxytryptamine receptor 1B (Rattus norvegicus) (UniProt P28564). Briefly: 5HT1B/R Cerep selectivity data (BI). The conditions noted are these: Compound concentration 10.0 uM.
5-hydroxytryptamine receptor 1B (Rattus norvegicus), sequence (P28564 whole entry): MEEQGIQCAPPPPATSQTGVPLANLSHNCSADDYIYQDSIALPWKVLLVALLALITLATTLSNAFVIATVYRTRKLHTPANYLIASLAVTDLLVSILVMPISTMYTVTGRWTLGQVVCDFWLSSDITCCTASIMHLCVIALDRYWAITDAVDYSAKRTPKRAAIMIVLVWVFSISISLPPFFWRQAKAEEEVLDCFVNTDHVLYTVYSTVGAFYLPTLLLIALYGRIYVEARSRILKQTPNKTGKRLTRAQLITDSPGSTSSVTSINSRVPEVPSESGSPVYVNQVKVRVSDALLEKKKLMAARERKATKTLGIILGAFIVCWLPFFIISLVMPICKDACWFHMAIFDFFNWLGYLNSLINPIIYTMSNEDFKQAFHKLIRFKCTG
In assay [6] the target is T1, 5-hydroxytryptamine receptor 3A (Homo sapiens) (UniProt P46098).
T1 sequence (whole entry): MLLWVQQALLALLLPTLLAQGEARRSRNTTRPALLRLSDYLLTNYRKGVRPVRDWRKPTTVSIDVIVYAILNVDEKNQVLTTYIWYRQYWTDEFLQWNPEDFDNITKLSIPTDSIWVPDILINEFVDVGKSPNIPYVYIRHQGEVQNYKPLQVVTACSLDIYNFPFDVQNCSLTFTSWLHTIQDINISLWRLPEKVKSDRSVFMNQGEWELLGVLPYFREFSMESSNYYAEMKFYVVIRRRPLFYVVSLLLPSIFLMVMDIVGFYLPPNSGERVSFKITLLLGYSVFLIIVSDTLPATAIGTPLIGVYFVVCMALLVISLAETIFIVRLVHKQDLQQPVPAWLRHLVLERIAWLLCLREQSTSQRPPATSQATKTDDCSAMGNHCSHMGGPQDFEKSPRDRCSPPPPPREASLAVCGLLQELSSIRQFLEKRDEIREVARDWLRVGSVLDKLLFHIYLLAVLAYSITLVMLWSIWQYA
Briefly: 5HT3/H Cerep selectivity data (BI). The following applies: Compound concentration 10.0 uM.

Assay [7] addresses Adenosine receptor A2a (Homo sapiens) (UniProt P29274). As to the kind of experiment: A2A/H Cerep selectivity data (BI). The following applies: filed as antagonist, Compound concentration 10.0 uM.
The target in assay [8] is T2, Alpha-2A adrenergic receptor (Homo sapiens) (UniProt P08913).
T2 sequence (whole entry): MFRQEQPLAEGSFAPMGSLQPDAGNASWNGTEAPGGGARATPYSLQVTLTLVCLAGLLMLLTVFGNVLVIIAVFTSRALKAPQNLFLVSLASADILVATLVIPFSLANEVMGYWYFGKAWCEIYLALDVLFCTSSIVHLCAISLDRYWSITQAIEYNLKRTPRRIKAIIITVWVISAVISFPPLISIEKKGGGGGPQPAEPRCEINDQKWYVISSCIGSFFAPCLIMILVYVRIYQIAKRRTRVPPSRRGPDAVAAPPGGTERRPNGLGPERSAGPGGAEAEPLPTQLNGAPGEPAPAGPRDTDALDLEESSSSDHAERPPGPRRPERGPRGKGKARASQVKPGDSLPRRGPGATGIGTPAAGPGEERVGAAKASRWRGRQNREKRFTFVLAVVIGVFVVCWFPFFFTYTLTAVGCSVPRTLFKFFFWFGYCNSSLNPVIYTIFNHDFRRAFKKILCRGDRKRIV
Briefly: ALPHA2A/HU Cerep selectivity data (BI). The following applies: Compound concentration 10.0 uM.

Assay [9] deals with Androgen receptor (Homo sapiens) (UniProt P10275). Briefly: ANDROGEN/H Cerep selectivity data (BI). The following applies: Compound concentration 10.0 uM.
Assay [10] deals with Cannabinoid receptor 2 (Homo sapiens) (UniProt P34972). Briefly: CB2/PERIPH/H Cerep selectivity data (BI). The following applies: Compound concentration 10.0 uM.
Cannabinoid receptor 2 (Homo sapiens), sequence (P34972 whole entry): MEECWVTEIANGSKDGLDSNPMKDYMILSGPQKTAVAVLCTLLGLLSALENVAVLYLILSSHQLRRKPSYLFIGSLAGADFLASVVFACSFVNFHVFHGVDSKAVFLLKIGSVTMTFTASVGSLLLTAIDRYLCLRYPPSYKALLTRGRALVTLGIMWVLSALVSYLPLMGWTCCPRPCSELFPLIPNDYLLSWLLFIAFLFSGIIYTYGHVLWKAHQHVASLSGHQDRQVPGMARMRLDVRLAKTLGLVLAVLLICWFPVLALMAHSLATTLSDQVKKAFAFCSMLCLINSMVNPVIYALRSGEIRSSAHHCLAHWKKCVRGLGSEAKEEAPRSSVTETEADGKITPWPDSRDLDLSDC
Assay [11] deals with Histamine H2 receptor (Homo sapiens) (UniProt P25021). Briefly: H2/APT/HS Cerep selectivity data (BI). The following applies: filed as antagonist, Compound concentration 10.0 uM.
Assay [12] addresses T3, Muscarinic acetylcholine receptor M2 (Homo sapiens) (UniProt P08172).
T3 sequence (whole entry): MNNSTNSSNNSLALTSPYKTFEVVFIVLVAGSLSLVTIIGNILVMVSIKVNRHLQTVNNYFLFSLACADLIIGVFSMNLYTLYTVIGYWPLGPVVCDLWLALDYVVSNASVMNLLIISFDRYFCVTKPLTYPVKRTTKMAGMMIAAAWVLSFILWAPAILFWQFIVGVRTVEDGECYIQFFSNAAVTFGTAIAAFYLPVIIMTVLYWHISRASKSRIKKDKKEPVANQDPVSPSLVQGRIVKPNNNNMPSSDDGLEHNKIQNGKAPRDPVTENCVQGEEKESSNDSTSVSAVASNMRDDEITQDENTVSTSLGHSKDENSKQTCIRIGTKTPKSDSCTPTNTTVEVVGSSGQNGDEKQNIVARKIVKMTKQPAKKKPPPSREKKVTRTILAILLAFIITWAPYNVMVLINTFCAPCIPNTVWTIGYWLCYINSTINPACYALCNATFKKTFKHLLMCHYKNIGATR
As to the kind of experiment: M2/H Cerep selectivity data (BI). The following applies: filed as antagonist, Compound concentration 10.0 uM.

Assay [13] concerns the target Sodium-dependent noradrenaline transporter (Homo sapiens) (UniProt P23975). Briefly: NEUP/H Cerep selectivity data (BI). The following applies: Compound concentration 10.0 uM.
The target of assay [14] is Glutamate receptor ionotropic, NMDA 2A (Rattus norvegicus) (UniProt Q00959). Briefly: NMDA/R Cerep selectivity data (BI). The conditions noted are these: Compound concentration 10.0 uM.
Glutamate receptor ionotropic, NMDA 2A (Rattus norvegicus), sequence (Q00959 23-1464 limits assumed): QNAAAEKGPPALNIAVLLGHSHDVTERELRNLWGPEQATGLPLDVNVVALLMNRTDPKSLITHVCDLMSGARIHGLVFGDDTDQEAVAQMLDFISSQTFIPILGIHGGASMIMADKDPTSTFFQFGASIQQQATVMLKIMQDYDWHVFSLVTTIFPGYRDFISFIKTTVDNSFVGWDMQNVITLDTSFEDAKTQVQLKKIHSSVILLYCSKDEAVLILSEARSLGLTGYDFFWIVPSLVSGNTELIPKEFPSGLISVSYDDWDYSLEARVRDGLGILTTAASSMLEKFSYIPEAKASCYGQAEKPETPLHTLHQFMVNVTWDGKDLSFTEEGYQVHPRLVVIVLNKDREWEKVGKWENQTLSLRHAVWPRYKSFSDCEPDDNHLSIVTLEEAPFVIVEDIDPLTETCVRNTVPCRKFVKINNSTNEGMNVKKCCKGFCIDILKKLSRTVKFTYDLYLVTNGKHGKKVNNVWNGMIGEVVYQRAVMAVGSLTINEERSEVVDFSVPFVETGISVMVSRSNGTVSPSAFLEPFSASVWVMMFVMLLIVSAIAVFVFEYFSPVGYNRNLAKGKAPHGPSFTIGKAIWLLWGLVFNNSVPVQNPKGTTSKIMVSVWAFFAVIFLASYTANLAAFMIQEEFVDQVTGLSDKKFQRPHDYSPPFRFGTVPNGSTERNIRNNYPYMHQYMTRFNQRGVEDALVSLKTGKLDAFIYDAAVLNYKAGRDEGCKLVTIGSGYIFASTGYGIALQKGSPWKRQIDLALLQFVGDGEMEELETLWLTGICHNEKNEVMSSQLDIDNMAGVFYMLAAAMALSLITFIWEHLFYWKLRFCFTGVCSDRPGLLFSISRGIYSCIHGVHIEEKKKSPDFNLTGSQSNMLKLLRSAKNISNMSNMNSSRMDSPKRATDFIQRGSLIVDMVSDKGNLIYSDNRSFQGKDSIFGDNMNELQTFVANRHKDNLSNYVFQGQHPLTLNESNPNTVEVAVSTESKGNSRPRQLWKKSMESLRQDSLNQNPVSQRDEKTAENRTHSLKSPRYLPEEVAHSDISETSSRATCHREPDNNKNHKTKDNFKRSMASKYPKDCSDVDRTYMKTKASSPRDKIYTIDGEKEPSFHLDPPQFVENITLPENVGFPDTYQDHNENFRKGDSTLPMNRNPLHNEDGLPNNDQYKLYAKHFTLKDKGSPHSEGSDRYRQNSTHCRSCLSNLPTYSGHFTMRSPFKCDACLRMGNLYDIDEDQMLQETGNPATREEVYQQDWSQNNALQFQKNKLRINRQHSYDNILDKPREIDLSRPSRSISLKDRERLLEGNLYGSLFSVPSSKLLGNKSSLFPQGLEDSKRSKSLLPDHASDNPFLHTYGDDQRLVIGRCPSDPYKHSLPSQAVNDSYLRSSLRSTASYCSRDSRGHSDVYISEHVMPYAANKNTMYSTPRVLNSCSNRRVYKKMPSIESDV
The target in assay [15] is cGMP-inhibited 3',5'-cyclic phosphodiesterase 3A (Homo sapiens) (UniProt Q14432). Briefly: PDE3A Cerep selectivity data (BI). The following applies: Compound concentration 10.0 uM.
Assay [16] deals with Sodium-dependent serotonin transporter (Homo sapiens) (UniProt P31645). Briefly: SLC6A4/H Cerep selectivity data (BI). The following applies: filed as antagonist, Compound concentration 10.0 uM.
In assay [17] the target is Sodium-dependent dopamine transporter (Homo sapiens) (UniProt Q01959). The following applies: Compound concentration 10.0 uM.
Sodium-dependent dopamine transporter (Homo sapiens), sequence (Q01959 whole entry): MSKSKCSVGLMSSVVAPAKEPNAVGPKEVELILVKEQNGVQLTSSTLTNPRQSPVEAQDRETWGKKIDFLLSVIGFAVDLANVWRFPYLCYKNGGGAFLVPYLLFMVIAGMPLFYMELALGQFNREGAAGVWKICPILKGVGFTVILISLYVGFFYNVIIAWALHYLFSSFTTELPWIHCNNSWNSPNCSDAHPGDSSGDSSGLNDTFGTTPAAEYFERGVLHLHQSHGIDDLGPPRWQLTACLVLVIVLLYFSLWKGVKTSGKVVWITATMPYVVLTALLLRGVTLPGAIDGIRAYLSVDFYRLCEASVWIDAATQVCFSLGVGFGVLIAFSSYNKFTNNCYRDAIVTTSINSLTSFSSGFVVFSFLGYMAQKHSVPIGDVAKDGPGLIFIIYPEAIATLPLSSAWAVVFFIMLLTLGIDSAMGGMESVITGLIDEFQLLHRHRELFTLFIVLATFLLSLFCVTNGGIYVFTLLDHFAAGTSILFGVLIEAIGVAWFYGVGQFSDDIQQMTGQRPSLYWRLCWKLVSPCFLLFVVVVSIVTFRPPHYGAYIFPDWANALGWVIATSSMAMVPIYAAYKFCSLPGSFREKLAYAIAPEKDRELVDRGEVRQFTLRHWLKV
The target in assay [18] is Muscarinic acetylcholine receptor M1 (Homo sapiens) (UniProt P11229). The conditions noted are these: Compound concentration 10.0 uM.
Muscarinic acetylcholine receptor M1 (Homo sapiens), sequence (P11229 whole entry): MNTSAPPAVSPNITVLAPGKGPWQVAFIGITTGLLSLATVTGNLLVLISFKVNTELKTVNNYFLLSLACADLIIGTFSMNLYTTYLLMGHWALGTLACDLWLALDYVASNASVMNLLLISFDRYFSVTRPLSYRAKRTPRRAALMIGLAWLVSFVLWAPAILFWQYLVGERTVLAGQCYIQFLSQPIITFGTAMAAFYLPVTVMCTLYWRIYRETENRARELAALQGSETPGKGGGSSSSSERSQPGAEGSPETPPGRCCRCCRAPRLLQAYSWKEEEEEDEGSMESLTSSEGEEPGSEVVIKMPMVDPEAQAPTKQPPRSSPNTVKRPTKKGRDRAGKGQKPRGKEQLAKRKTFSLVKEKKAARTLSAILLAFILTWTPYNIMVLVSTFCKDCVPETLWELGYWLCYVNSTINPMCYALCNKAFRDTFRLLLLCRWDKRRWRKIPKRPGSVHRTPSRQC

SMILES strings stand for the structures.

Beta-2 adrenergic receptor (Homo sapiens), sequence (P07550 whole entry, looked up): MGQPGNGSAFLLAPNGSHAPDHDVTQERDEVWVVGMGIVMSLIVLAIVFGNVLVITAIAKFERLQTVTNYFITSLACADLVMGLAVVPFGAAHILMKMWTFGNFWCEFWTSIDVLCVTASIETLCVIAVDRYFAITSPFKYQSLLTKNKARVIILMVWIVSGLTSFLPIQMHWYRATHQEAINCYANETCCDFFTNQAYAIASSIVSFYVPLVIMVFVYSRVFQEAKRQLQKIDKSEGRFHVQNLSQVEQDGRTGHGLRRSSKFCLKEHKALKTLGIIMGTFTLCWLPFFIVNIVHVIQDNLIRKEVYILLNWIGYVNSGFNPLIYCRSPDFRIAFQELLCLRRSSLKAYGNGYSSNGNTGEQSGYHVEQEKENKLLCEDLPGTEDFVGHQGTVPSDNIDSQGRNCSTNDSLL
Adenosine receptor A2a (Homo sapiens), sequence (P29274 whole entry): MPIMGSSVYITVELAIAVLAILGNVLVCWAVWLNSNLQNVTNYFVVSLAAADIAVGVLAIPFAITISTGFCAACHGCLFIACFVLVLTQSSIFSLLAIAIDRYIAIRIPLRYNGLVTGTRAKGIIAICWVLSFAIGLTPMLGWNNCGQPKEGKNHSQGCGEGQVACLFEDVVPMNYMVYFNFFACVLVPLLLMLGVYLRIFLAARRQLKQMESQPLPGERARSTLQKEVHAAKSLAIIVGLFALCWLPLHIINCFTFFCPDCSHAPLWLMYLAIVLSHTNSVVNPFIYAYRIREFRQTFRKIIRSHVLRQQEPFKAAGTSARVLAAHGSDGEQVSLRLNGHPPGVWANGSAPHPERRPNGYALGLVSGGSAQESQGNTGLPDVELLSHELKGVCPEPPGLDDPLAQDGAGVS

In the case of `Cc1nccc(COC(=O)N2C[C@@H]3[C@@H](CNC(=O)c4ccc5[nH]nnc5c4)[C@@H]3C2)n1` [BI 3017], in assay [1], the inhibition is -9.93%.

On to `O=C(NC[C@@H]1[C@H]2CN(C(=O)OCc3cc(C(F)(F)F)cc(C(F)(F)F)c3)C[C@@H]12)c1ccc2[nH]nnc2c1` [BI 2545], for which the Ki in assay [2] is 8.68 µM; in assay [3], 3.55 µM. Further, the residual activity in [4] was 82%; in assay [5], 92%; in assay [6], 94%; in [7], 107%; in assay [8], 86%; in assay [9], 103%. For the same compound, the residual activity was 77% in [10]; 110% in [11]; 100% in assay [12]; 39% in assay [13]; 100% in assay [14]; 76% in assay [15]. The residual activity in assay [16] is 66%. The inhibition is -2.65% in assay [17] and -2.87% in assay [18].
